Test results published in ChEMBL document CHEMBL1140195, “Synthesis, screening for antitubercular activity and 3D-QSAR studies of substituted N-phenyl-6-methyl-2-oxo-4-phenyl-1,2,3,4-tetrahydro-pyrimidine-5-carboxamides” (2008).
Converted amounts (≈) assume the structure as drawn.

How the values were obtained:
Type in all cases: functional
[1] = system: Mycobacterium tuberculosis; test: Antitubercular activity against Mycobacterium tuberculosis H37Rv
[2] = system: Mycobacterium tuberculosis; test: Antitubercular activity against Mycobacterium tuberculosis H37Rv at 6.25 ug/mL relative to control
[3] = system: Mycobacterium tuberculosis; test: Antitubercular activity against Mycobacterium tuberculosis

Molecule `CC1=C(C(=O)Nc2ccccc2F)C(c2ccc([N+](=O)[O-])cc2)NC(=O)N1` (centres undefined) has an MIC [1] greater than 6.25 µg/mL and an inhibition at 6.25 µg/mL [2] of 4%.
`CC1=C(C(=O)Nc2ccc(C)c(C)c2)C(c2ccc([N+](=O)[O-])cc2)NC(=O)N1` (centres undefined) showed an MIC [1] greater than 6.25 µg/mL and an inhibition at 6.25 µg/mL [2] of 13%.
`CC1=C(C(=O)Nc2ccc(F)c(Cl)c2)C(c2cccc([N+](=O)[O-])c2)NC(=O)N1` (centres undefined) was tested, and the MIC [1] was greater than 6.25 µg/mL and the inhibition at 6.25 µg/mL [2] was 29%.
`CC1=C(C(=O)Nc2ccccc2F)C(c2cccc([N+](=O)[O-])c2)NC(=O)N1` (centres undefined) gave an MIC [1] greater than 6.25 µg/mL and an inhibition at 6.25 µg/mL [2] of 24%.
In the case of `CC1=C(C(=O)Nc2ccc(F)cc2)C(c2cccc(Cl)c2)NC(=O)N1` (centres undefined), the MIC [1] is reported as greater than 6.25 µg/mL and the inhibition at 6.25 µg/mL [2] is reported as 38%.
`CC1=C(C(=O)Nc2ccccc2Cl)C(c2ccccc2[N+](=O)[O-])NC(=O)N1` (centres undefined) gave an MIC [1] greater than 6.25 µg/mL and an inhibition at 6.25 µg/mL [2] of 11%.
`CC1=C(C(=O)Nc2cc(C)ccc2C)C(c2cccc(Oc3ccccc3)c2)NC(=O)N1` (centres undefined) gave an MIC [1] greater than 6.25 µg/mL and an inhibition at 6.25 µg/mL [2] of 27%.
`CC1=C(C(=O)Nc2cccc(C)c2C)C(c2cccc(Oc3ccccc3)c2)NC(=O)N1` (centres undefined) gave an MIC [1] greater than 6.25 µg/mL and an inhibition at 6.25 µg/mL [2] of 65%.
`CC1=C(C(=O)Nc2ccccc2Cl)C(c2ccc(Cl)cc2)NC(=O)N1` (centres undefined) was tested, and the MIC [1] was greater than 6.25 µg/mL and the inhibition at 6.25 µg/mL [2] was 26%.
For `CC1=C(C(=O)Nc2ccccc2)C(c2ccc([N+](=O)[O-])cc2)NC(=O)N1` (centres undefined), the MIC [1] was greater than 6.25 µg/mL and the inhibition at 6.25 µg/mL [2] was 25%.
Work on `CC1=C(C(=O)Nc2ccc(Cl)cc2)C(c2cccc([N+](=O)[O-])c2)NC(=O)N1` (centres undefined) yielded an MIC [1] greater than 6.25 µg/mL and an inhibition at 6.25 µg/mL [2] of 29%.
`CC1=C(C(=O)Nc2ccc(F)cc2)C(c2cccc([N+](=O)[O-])c2)NC(=O)N1` (centres undefined) was tested, and the MIC [1] was greater than 6.25 µg/mL and the inhibition at 6.25 µg/mL [2] was 30%.
With `CC1=C(C(=O)Nc2ccccc2C)C(c2cccc([N+](=O)[O-])c2)NC(=O)N1` (centres undefined) the MIC [1] was greater than 6.25 µg/mL and the inhibition at 6.25 µg/mL [2] was 6%.
Work on `CC1=C(C(=O)Nc2ccc(C)c(C)c2)C(c2cccc(Oc3ccccc3)c2)NC(=O)N1` (centres undefined) yielded an MIC [1] greater than 6.25 µg/mL and an inhibition at 6.25 µg/mL [2] of 32%.
In the case of `CC1=C(C(=O)Nc2cc(C)ccc2C)C(c2ccc([N+](=O)[O-])cc2)NC(=O)N1` (centres undefined), the MIC [1] is reported as greater than 6.25 µg/mL and the inhibition at 6.25 µg/mL [2] is reported as 4%.
Molecule `CC1=C(C(=O)Nc2cc(C)ccc2C)C(c2ccc(Cl)cc2)NC(=O)N1` (centres undefined) has an MIC [1] greater than 6.25 µg/mL and an inhibition at 6.25 µg/mL [2] of 6%.
For `CC1=C(C(=O)Nc2ccccc2F)C(c2ccc(O)cc2)NC(=O)N1` (centres undefined), the MIC [1] was greater than 6.25 µg/mL and the inhibition at 6.25 µg/mL [2] was 18%.
With `CC1=C(C(=O)Nc2ccc(C)cc2C)C(c2ccc(O)cc2)NC(=O)N1` (centres undefined) the MIC [1] was greater than 6.25 µg/mL and the inhibition at 6.25 µg/mL [2] was 12%.
Work on `CC1=C(C(=O)Nc2cccc([N+](=O)[O-])c2)C(c2ccc(O)cc2)NC(=O)N1` (centres undefined) yielded an MIC [1] greater than 6.25 µg/mL and an inhibition at 6.25 µg/mL [2] of 2%.
Work on `CC1=C(C(=O)Nc2ccc(F)c(Cl)c2)C(c2ccc([N+](=O)[O-])cc2)NC(=O)N1` (centres undefined) yielded an MIC [1] greater than 6.25 µg/mL and an inhibition at 6.25 µg/mL [2] of 22%.
Molecule `CC1=C(C(=O)Nc2ccccc2Cl)C(c2cccc([N+](=O)[O-])c2)NC(=O)N1` (centres undefined) has an MIC [1] greater than 6.25 µg/mL and an inhibition at 6.25 µg/mL [2] of 26%.
`CC1=C(C(=O)Nc2ccc(F)c(Cl)c2)C(c2cccc(Cl)c2)NC(=O)N1` (centres undefined) showed an MIC [1] greater than 6.25 µg/mL and an inhibition at 6.25 µg/mL [2] of 48%.
`CC1=C(C(=O)Nc2ccc(C)cc2C)C(c2ccc([N+](=O)[O-])cc2)NC(=O)N1` (centres undefined) gave an MIC [1] greater than 6.25 µg/mL and an inhibition at 6.25 µg/mL [2] of 12%.
In the case of `CC1=C(C(=O)Nc2ccc(C)cc2)C(c2cccc([N+](=O)[O-])c2)NC(=O)N1` (centres undefined), the MIC [1] is reported as greater than 6.25 µg/mL and the inhibition at 6.25 µg/mL [2] is reported as 28%.
For `CC1=C(C(=O)Nc2ccc(Cl)cc2)C(c2ccc([N+](=O)[O-])cc2)NC(=O)N1` (centres undefined), the MIC [1] was greater than 6.25 µg/mL and the inhibition at 6.25 µg/mL [2] was 9%.
With `CC1=C(C(=O)Nc2cc(Cl)ccc2Cl)C(c2ccc([N+](=O)[O-])cc2)NC(=O)N1` (centres undefined) the MIC [1] was greater than 6.25 µg/mL and the inhibition at 6.25 µg/mL [2] was 18%.
`CC1=C(C(=O)Nc2ccc(C)c(C)c2)C(c2cccc([N+](=O)[O-])c2)NC(=O)N1` (centres undefined) gave an MIC [1] greater than 6.25 µg/mL and an inhibition at 6.25 µg/mL [2] of 63%.
In the case of `COc1ccc(NC(=O)C2=C(C)NC(=O)NC2c2ccc([N+](=O)[O-])cc2)cc1` (centres undefined), the MIC [1] is reported as greater than 6.25 µg/mL and the inhibition at 6.25 µg/mL [2] is reported as 21%.
For `COc1ccc(C2NC(=O)NC(C)=C2C(=O)Nc2cc(C)ccc2C)cc1` (centres undefined), the MIC [1] was greater than 6.25 µg/mL and the inhibition at 6.25 µg/mL [2] was 2%.
Molecule `CCCc1cc(=O)oc2c3c(c4c(c12)OC(C)(C)C=C4)O[C@H](C)[C@@H](C)[C@@H]3O` [CALANOLIDE A] has an MIC [3] of 3.13 µg/mL (≈ 8.45 µM).
